Measured values published in ChEMBL document CHEMBL3046739, “Effects of imidacloprid on transmission of tomato spotted wilt tospovirus to pepper, tomato and tobacco by Frankliniella fusca Hinds (Thysanoptera: Thripidae)” (2001).
The source made the active and inactive calls. The calls are words filed in the database; no cut-off is given here.

What was measured:
Frankliniella fusca [1] = assay: Insecticidal activity against Frankliniella fusca assessed as effect on probing/feeding bout on mustard plants at 14.4 g a.i./1000 plants measured as duration of potential drops by electronic penetration graph analysis (reference value: 0.06 +/- 0.03 min); type: functional
Frankliniella fusca [2] = assay: Insecticidal activity against Frankliniella fusca assessed as effect on probing/feeding bout on pepper plants at 14.4 g a.i./1000 plants measured as duration of potential drops by electronic penetration graph analysis (reference value: 0.04 +/- 0.02 min); type: functional
Frankliniella fusca [3] = assay: (§1) Insecticidal activity against Frankliniella fusca assessed as reduction in tomato spotted wilt tospovirus transmission in compound pre-treated tomato plant at 9.9 g a.i./1000 plants 60 days prior to 48 hr insect-infestation followed by foliar application at 7.1 g a.i./1000 plants measured after 21 days in green house conditions; type: functional; parameters: scale not given: the % may be the effect or the level left
Frankliniella fusca [4] = assay: Insecticidal activity against Frankliniella fusca assessed as effect on probing/feeding bout on mustard plants at 14.4 g a.i./1000 plants measured as number of potential drops by electronic penetration graph analysis (reference value: 0.2 +/- 0.09 /hr); type: functional
Frankliniella fusca [5] = assay: Insecticidal activity against Frankliniella fusca assessed as effect on probing/feeding bout on pepper plants at 7.1 g a.i./1000 plants measured as number of potential drops by electronic penetration graph analysis (reference value: 0.03 +/- 0.01 /hr); type: functional
Frankliniella fusca [6] = assay: Insecticidal activity against Frankliniella fusca assessed as effect on probing/feeding bout on pepper plants at 7.1 g a.i./1000 plants measured as duration of potential drops by electronic penetration graph analysis (reference value: 0.01 +/- 0.01 min); type: functional
Frankliniella fusca [7] = assay: as §1, with “as” for “as reduction in”, “pre-treated tobacco” for “pre-treated tomato”, “conditions (reference value: 82.5 +/- 0.05%)” for “conditions”; type: functional
Frankliniella fusca [8] = assay: as §1, with “pretreated” for “pre-treated”, “11.3” for “9.9”, “8” for “60”, “field” for “green house”; type: functional; parameters: scale not given: the % may be the effect or the level left
Frankliniella fusca [9] = assay: Insecticidal activity against Frankliniella fusca assessed as reduction in number of thrips isolated per compound pre-treated tobacco plant infected with tomato spotted wilt tospovirus at 9.9 g a.i./1000 plants in green house conditions relative to control; type: functional, organism-based
Frankliniella fusca [10] = assay: Insecticidal activity against Frankliniella fusca assessed as effect on probing/feeding bout on mustard plants at 7.1 g a.i./1000 plants measured as number of potential drops by electronic penetration graph analysis (reference value: 0.7 +/- 0.11 /hr); type: functional
Frankliniella fusca [11] = assay: as §1, with “pretreated pepper” for “pre-treated tomato”; type: functional; parameters: scale not given: the % may be the effect or the level left
Frankliniella fusca [12] = assay: Insecticidal activity against Frankliniella fusca assessed as effect on probing/feeding bout on pepper plants at 14.4 g a.i./1000 plants measured as number of potential drops by electronic penetration graph analysis (reference value: 0.28 +/- 0.03 /hr); type: functional
Frankliniella fusca [13] = assay: Insecticidal activity against Frankliniella fusca immature thrips isolated from infected tobacco plants assessed reduction in tomato spotted wilt tospovirus transmission on petunia leaf by DAS-ELISA; type: functional; parameters: scale not given: the % may be the effect or the level left
Frankliniella fusca [14] = assay: as §1, with “pre-treated pepper” for “pre-treated tomato”, “at 11.3” for “at 9.9”, “plants 8” for “plants 60”, “in field” for “in green house”; type: functional; parameters: scale not given: the % may be the effect or the level left
Frankliniella fusca [15] = assay: Insecticidal activity against Frankliniella fusca assessed as effect on probing/feeding bout on mustard plants at 7.1 g a.i./1000 plants measured as duration of potential drops by electronic penetration graph analysis (reference value: 1.28 +/- 0.15 min); type: functional

O=[N+]([O-])/N=C1\NCCN1Cc1ccc(Cl)nc1 [IMIDACLOPRID]
Time (Frankliniella fusca [1]): 0.79 min | Time (Frankliniella fusca [2]): 0.52 min | Activity (Frankliniella fusca [3]): 82% | Activity (Frankliniella fusca [4]): 1.53 h⁻¹ | Activity (Frankliniella fusca [5]): 1.53 h⁻¹ | Time (Frankliniella fusca [6]): 0.39 min | Activity (Frankliniella fusca [7]): 11.1% | Activity (Frankliniella fusca [8]): 87% | Activity (Frankliniella fusca [9]): Active | Activity (Frankliniella fusca [10]): 2.12 h⁻¹ | Activity (Frankliniella fusca [11]): 74% | Activity (Frankliniella fusca [12]): 1.84 h⁻¹ | Activity (Frankliniella fusca [13]): 6.4% | Activity (Frankliniella fusca [14]): 73% | Time (Frankliniella fusca [15]): 1.41 min
